Here are results for 4 compounds from publication PMC3985129 (Journal of laboratory automation, 2013).

Values joined by “and” are separate entries in the source; they are usually repeats but may differ in a detail not shown here. Equal entries are not always repeated.

In general, EC50 refers to the concentration giving half of the maximal effect. Low readings indicate an effect from little substance, high ones a need for much substance.

The nature of one series: Cytotoxicity assay. Conditions: human, MMTV-βLa HeLa cells, EC50 (95% confidence interval), Cytotoxicity assay (ATP content).
Series [1] deals with green coffee bean α-galactosidase A (GLA) (Coffea arabica, UniProt Q42656). Description: α-galactosidase. It is filed as biochemical.
Sequence of green coffee bean α-galactosidase A (GLA) (Q42656 16-378): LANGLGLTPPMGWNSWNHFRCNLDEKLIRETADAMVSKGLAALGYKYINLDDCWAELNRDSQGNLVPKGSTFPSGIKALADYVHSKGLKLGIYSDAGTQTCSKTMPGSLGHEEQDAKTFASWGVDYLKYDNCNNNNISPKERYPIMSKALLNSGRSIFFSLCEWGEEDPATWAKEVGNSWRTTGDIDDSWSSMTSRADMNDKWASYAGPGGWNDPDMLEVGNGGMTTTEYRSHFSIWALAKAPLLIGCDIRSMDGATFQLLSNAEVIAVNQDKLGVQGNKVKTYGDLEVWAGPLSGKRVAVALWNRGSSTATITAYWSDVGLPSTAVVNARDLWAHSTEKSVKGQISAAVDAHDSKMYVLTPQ
[2] abbreviates: HP D300 - with DMSO backfill, 384-well.
The mark [3] stands for this setting: HP D300 - without DMSO backfill, 384-well.

`COc1cccc2c1C(=O)c1c(O)c3c(c(O)c1C2=O)C[C@@](O)(C(C)=O)C[C@@H]3O[C@H]1C[C@H](N)[C@H](O)[C@H](C)O1` [Daunorubicin]: the EC50 at 72 hr in “Cytotoxicity assay” (setting [2]) was 0.189 µM; in “Cytotoxicity assay” (setting [3]), 0.252 µM; in “Cytotoxicity assay” (Pin tool – 1536-well) it was 0.38 µM.

On to `CC(=O)[O][Hg][c]1ccccc1` [PMA, phenylmercuric acetate], for which the “fold more potent in our assay than previously reported” value in series [1] (versus previously published value, ref [4]) is above 50 fold.

Turning to `Cc1c(OCC(F)(F)F)ccnc1C[S+]([O-])c1nc2ccccc2[nH]1` (centres unmarked) [Lansoprazole, lansoprazole], the EC50 in series [1] (EC50 (95% confidence interval), α-galactosidase enzyme assay) was 12 µM and 11.5 µM and 8.95 µM.

Consider `CC/C(=C(\c1ccccc1)c1ccc(OCCN(C)C)cc1)c1ccccc1` [Tamoxifen, tamoxifen], for which the EC50 at 72 hr came out at 8.77 µM in the series “Cytotoxicity assay” (setting [2]), 9 µM in the series “Cytotoxicity assay” (setting [3]) and 32.1 µM in “Cytotoxicity assay” (Pin tool – 1536-well).
